Measurements published in ChEMBL document CHEMBL3044631, “Synthesis of 2-[4,5-dimethyl-1-(phenylamino)-1H-imidazol-2-ylthio]-N-(thiazole-2-yl)acetamide derivatives and their anticancer activities” (2013).

Columns and labels:
Format in all cases: functional
IGROV-1 = experiment: Anticancer activity against Homo sapiens (human) IGROV1 cells assessed as cell growth promotion at 10 uM after 48 hr by SRB assay
UACC-62 = experiment: Anticancer activity against Homo sapiens (human) UACC62 cells assessed as cell growth promotion at 10 uM after 48 hr by SRB assay
UACC-257 = experiment: Anticancer activity against Homo sapiens (human) UACC257 cells assessed as cell growth promotion at 10 uM after 48 hr by SRB assay
SK-MEL-5 = experiment: Anticancer activity against Homo sapiens (human) SK-MEL-5 cells assessed as cell growth promotion at 10 uM after 48 hr by SRB assay
BT-549 = experiment: Anticancer activity against Homo sapiens (human) BT549 cells assessed as cell growth promotion at 10 uM after 48 hr by SRB assay
MDA-MB-231 = experiment: Anticancer activity against Homo sapiens (human) MDA-MB-231/ATCC cells assessed as cell growth promotion at 10 uM after 48 hr by SRB assay
MCF7 = experiment: Anticancer activity against Homo sapiens (human) MCF7 cells assessed as cell growth promotion at 10 uM after 48 hr by SRB assay
PC-3 = experiment: Anticancer activity against Homo sapiens (human) PC3 cells assessed as cell growth promotion at 10 uM after 48 hr by SRB assay
DU-145 = experiment: Anticancer activity against Homo sapiens (human) DU145 cells assessed as cell growth promotion at 10 uM after 48 hr by SRB assay
UO-31 = experiment: Anticancer activity against Homo sapiens (human) UO31 cells assessed as cell growth promotion at 10 uM after 48 hr by SRB assay
TK-10 = experiment: Anticancer activity against Homo sapiens (human) TK10 cells assessed as cell growth promotion at 10 uM after 48 hr by SRB assay
RXF 393 = experiment: Anticancer activity against Homo sapiens (human) RXF393 cells assessed as cell growth promotion at 10 uM after 48 hr by SRB assay
CAKI-1 = experiment: Anticancer activity against Homo sapiens (human) CAKI-1 cells assessed as cell growth promotion at 10 uM after 48 hr by SRB assay
ACHN = experiment: Anticancer activity against Homo sapiens (human) ACHN cells assessed as cell growth promotion at 10 uM after 48 hr by SRB assay
A498 = experiment: Anticancer activity against Homo sapiens (human) A498 cells assessed as cell growth promotion at 10 uM after 48 hr by SRB assay
SK-OV-3 = experiment: Anticancer activity against Homo sapiens (human) SKOV3 cells assessed as cell growth promotion at 10 uM after 48 hr by SRB assay
OVCAR-5 = experiment: Anticancer activity against Homo sapiens (human) OVCAR5 cells assessed as cell growth promotion at 10 uM after 48 hr by SRB assay
OVCAR-4 = experiment: Anticancer activity against Homo sapiens (human) OVCAR4 cells assessed as cell growth promotion at 10 uM after 48 hr by SRB assay
OVCAR-3 = experiment: Anticancer activity against Homo sapiens (human) OVCAR3 cells assessed as cell growth promotion at 10 uM after 48 hr by SRB assay
MDA-MB-468 = experiment: Anticancer activity against Homo sapiens (human) MDA-MB-468 cells assessed as cell growth promotion at 10 uM after 48 hr by SRB assay
HCT-15 = experiment: Anticancer activity against Homo sapiens (human) HCT15 cells assessed as cell growth promotion at 10 uM after 48 hr by SRB assay
COLO 205 = experiment: Anticancer activity against Homo sapiens (human) COLO205 cells assessed as cell growth promotion at 10 uM after 48 hr by SRB assay
NCI-H522 = experiment: Anticancer activity against Homo sapiens (human) NCI-H522 cells assessed as cell growth promotion at 10 uM after 48 hr by SRB assay
NCI-H322M = experiment: Anticancer activity against Homo sapiens (human) NCI-H322M cells assessed as cell growth promotion at 10 uM after 48 hr by SRB assay
NCI-H226 = experiment: Anticancer activity against Homo sapiens (human) NCI-H226 cells assessed as cell growth promotion at 10 uM after 48 hr by SRB assay
HOP-92 = experiment: Anticancer activity against Homo sapiens (human) HOP92 cells assessed as cell growth promotion at 10 uM after 48 hr by SRB assay
EKVX = experiment: Anticancer activity against Homo sapiens (human) EKVX cells assessed as cell growth promotion at 10 uM after 48 hr by SRB assay
RPMI-8226 = experiment: Anticancer activity against Homo sapiens (human) RPMI8226 cells assessed as cell growth promotion at 10 uM after 48 hr by SRB assay
MOLT-4 = experiment: Anticancer activity against Homo sapiens (human) MOLT4 cells assessed as cell growth promotion at 10 uM after 48 hr by SRB assay
HL-60(TB) = experiment: Anticancer activity against Homo sapiens (human) HL-60(TB) cells assessed as cell growth promotion at 10 uM after 48 hr by SRB assay
SK-MEL-28 = experiment: Anticancer activity against Homo sapiens (human) SK-MEL-28 cells assessed as cell growth promotion at 10 uM after 48 hr by SRB assay
SK-MEL-2 = experiment: Anticancer activity against Homo sapiens (human) SK-MEL-2 cells assessed as cell growth promotion at 10 uM after 48 hr by SRB assay
MDA-MB-435 = experiment: Anticancer activity against Homo sapiens (human) MDA-MB-435 cells assessed as cell growth promotion at 10 uM after 48 hr by SRB assay
LOX IMVI = experiment: Anticancer activity against Homo sapiens (human) LOXIMVI cells assessed as cell growth promotion at 10 uM after 48 hr by SRB assay
U-251 = experiment: Anticancer activity against Homo sapiens (human) U251 cells assessed as cell growth promotion at 10 uM after 48 hr by SRB assay
SNB-19 = experiment: Anticancer activity against Homo sapiens (human) SNB19 cells assessed as cell growth promotion at 10 uM after 48 hr by SRB assay
SF-295 = experiment: Anticancer activity against Homo sapiens (human) SF295 cells assessed as cell growth promotion at 10 uM after 48 hr by SRB assay
SF-268 = experiment: Anticancer activity against Homo sapiens (human) SF268 cells assessed as cell growth promotion at 10 uM after 48 hr by SRB assay
SW-620 = experiment: Anticancer activity against Homo sapiens (human) SW620 cells assessed as cell growth promotion at 10 uM after 48 hr by SRB assay
NCI-H460 = experiment: Anticancer activity against Homo sapiens (human) NCI-H460 cells assessed as cell growth promotion at 10 uM after 48 hr by SRB assay

SMILES | Activity (IGROV-1) [%] | Activity (UACC-62) [%] | Activity (UACC-257) [%] | Activity (SK-MEL-5) [%] | Activity (BT-549) [%] | Activity (MDA-MB-231) [%] | Activity (MCF7) [%] | Activity (PC-3) [%] | Activity (DU-145) [%] | Activity (UO-31) [%] | Activity (TK-10) [%] | Activity (CAKI-1) [%] | Activity (ACHN) [%] | Activity (A498) [%] | Activity (SK-OV-3) [%] | Activity (OVCAR-5) [%] | Activity (OVCAR-4) [%] | Activity (OVCAR-3) [%] | Activity (MDA-MB-468) [%] | Activity (HCT-15) [%] | further results
Cc1ccc(Nn2c(SCC(=O)Nc3nc(-c4ccccc4)cs3)nc(C)c2C)cc1 | 86 | 51.82 | 54.08 | 66.75 | 63.51 | 46 | 24.07 | 71.8 | 83.4 | 51.58 | 72.7 | 53.6 | 60.88 | 92.54 | 69.62 | 81.8 | 25.36 | 78.47 | 17.71 | 67.18 | Activity (RXF 393): 61.47%; Activity (COLO 205): 32.48%; Activity (NCI-H522): 49.7%; Activity (NCI-H322M): 96.01%; Activity (NCI-H226): 46.34%; Activity (HOP-92): 59.94%; Activity (EKVX): 49.68%; Activity (RPMI-8226): 55.78%; Activity (MOLT-4): 54.72%; Activity (HL-60(TB)): 63.8%; Activity (SK-MEL-28): 77.24%; Activity (SK-MEL-2): 81.38%; Activity (MDA-MB-435): 76.71%; Activity (LOX IMVI): 51.93%; Activity (U-251): 49.3%; Activity (SNB-19): 74.35%; Activity (SF-295): 46.1%; Activity (SF-268): 81.68%; Activity (SW-620): 98.8%; Activity (NCI-H460): 78.13%
Cc1nc(SCC(=O)Nc2nccs2)n(Nc2ccccc2)c1C | 123.21 | 94.24 | 94.83 | 94.75 | 96.32 | 95.5 | 98.76 | 93.56 | 116.36 | 84.18 | 111.75 | 102.08 | 95.27 | 101.7 | 102.5 | 80.93 | 103.25 | 116.22 | 105.55 | 97.16 | Activity (RXF 393): 83.96%; Activity (COLO 205): 117.71%; Activity (NCI-H522): 102.09%; Activity (NCI-H322M): 118.03%; Activity (NCI-H226): 100.29%; Activity (HOP-92): 76.48%; Activity (EKVX): 115.74%; Activity (RPMI-8226): 100.95%; Activity (MOLT-4): 108.49%; Activity (HL-60(TB)): 96.52%; Activity (SK-MEL-28): 99.72%; Activity (SK-MEL-2): 106.73%; Activity (MDA-MB-435): 104.58%; Activity (LOX IMVI): 99.28%; Activity (U-251): 102.44%; Activity (SNB-19): 108.55%; Activity (SF-295): 86.6%; Activity (SF-268): 106.58%; Activity (SW-620): 116.34%; Activity (NCI-H460): 102.18%
COc1ccc(Nn2c(SCC(=O)Nc3nc(-c4ccc(Cl)cc4)cs3)nc(C)c2C)cc1 | 70.85 | 49.53 | 48.91 | -21.47 | 53.32 | 79.71 | 16.16 | 35.69 | 79.62 | 39.41 | 68.5 | 34.44 | 52.04 | 69.49 | 81.45 | 111.33 | 30.81 | 60.75 | 26.17 | 59.76 | Activity (COLO 205): 79.56%; Activity (NCI-H522): 66.22%; Activity (NCI-H322M): 111.9%; Activity (NCI-H226): 60.46%; Activity (HOP-92): 38.65%; Activity (EKVX): 41.94%; Activity (RPMI-8226): 35.7%; Activity (MOLT-4): 36.1%; Activity (SK-MEL-28): 82.63%; Activity (SK-MEL-2): 90.48%; Activity (MDA-MB-435): 50.36%; Activity (LOX IMVI): 38.91%; Activity (U-251): 43.51%; Activity (SNB-19): 79.24%; Activity (SF-295): 43.89%; Activity (SF-268): 66.13%; Activity (SW-620): 75.2%; Activity (NCI-H460): 39.32%
Cc1nc(SCC(=O)Nc2nc(-c3ccc(Cl)cc3)cs2)n(Nc2ccccc2)c1C | 68.44 | 34.83 | 46.91 | 10.19 | 54 | 48.83 | 27.14 | 59.13 | 65.41 | 32.86 | 56.83 | 36.74 | 49.37 | 74.31 | 68.56 | 65.75 | 35.93 | 61.29 | 21.05 | 57.63 | Activity (RXF 393): 72.14%; Activity (COLO 205): 65.21%; Activity (NCI-H522): 47.28%; Activity (NCI-H322M): 70.81%; Activity (NCI-H226): 59.84%; Activity (EKVX): 34.55%; Activity (MOLT-4): 41.02%; Activity (HL-60(TB)): 42.07%; Activity (SK-MEL-28): 54.29%; Activity (SK-MEL-2): 84.99%; Activity (MDA-MB-435): 41%; Activity (LOX IMVI): 26.08%; Activity (U-251): 36.61%; Activity (SNB-19): 59.64%; Activity (SF-295): 31.02%; Activity (SF-268): 56.4%; Activity (SW-620): 73.1%; Activity (NCI-H460): 52.96%
